# Assays:
# [1] = target: T1, CitApc (C12A/R93A CitA1-309) (Geobacillus thermodenitrificans, UniProt A4IPE6, C12A/R93A/N308C); assay: […] CODEX with DNP, inter-dimer distance change; type: binding; conditions: CH2COCF3-tagged at N308C; liposomes; 90 K
# T1 construct: gene GTNG_1840; residues 1-309 (PASp, TM helices, PASc; no kinase core); E. coli C43(DE3), Ni-NTA purified; reconstituted in DMPC/DMPA liposomes; dimer
# [2] = target: T2, full length Gt CitA (Geobacillus thermodenitrificans, UniProt A4IPE6, C12A/R93A/N308C, form not given); assay: […] NMR ATP hydrolysis assay in DMPC liposomes; type: biochemical; conditions: 5 mM sodium citrate; 6 mM ATP, 10 mM MgCl2, pH 6.5, 37 C; untagged and CH2COCF3-tagged at N308C; activator
# T2 construct: gene GTNG_1840; full length; vector pET16b, Ni-NTA purified, reconstituted in DMPC liposomes (C12A/R93A/N308C); pMW1652 in E. coli IMW549 for reporter assay
# T2 sequence (A4IPE6 entry or part of it C12A/R93A/N308C, form open): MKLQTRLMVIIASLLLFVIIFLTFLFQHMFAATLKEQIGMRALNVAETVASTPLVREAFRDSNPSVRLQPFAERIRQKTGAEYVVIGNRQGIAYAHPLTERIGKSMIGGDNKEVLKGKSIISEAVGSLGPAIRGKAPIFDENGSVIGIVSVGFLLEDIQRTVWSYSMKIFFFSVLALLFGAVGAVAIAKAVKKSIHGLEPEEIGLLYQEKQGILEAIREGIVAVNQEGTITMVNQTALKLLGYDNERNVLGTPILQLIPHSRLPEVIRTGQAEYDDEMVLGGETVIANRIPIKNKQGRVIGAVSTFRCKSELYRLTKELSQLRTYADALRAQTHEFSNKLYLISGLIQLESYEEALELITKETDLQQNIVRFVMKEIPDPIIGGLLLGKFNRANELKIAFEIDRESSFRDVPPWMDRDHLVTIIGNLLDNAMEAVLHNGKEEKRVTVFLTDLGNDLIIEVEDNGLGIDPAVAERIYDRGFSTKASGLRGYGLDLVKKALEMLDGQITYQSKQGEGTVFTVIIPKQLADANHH
# [3] = target: T3, CitApc (C12A/R93A CitA1-309) (Geobacillus thermodenitrificans, UniProt A4IPE6, C12A/R93A); assay: 1H-detected MAS solid-state NMR chemical shifts; type: binding; conditions: 5 mM sodium citrate, 20 mM sodium phosphate pH 6.5; DMPC/DMPA liposomes; 293 K
# T3 construct: gene GTNG_1840; residues 1-309 (PASp, TM helices, PASc; no kinase core); E. coli C43(DE3), Ni-NTA purified; reconstituted in DMPC/DMPA liposomes; dimer
# T3 sequence (A4IPE6 entry or part of it C12A/R93A): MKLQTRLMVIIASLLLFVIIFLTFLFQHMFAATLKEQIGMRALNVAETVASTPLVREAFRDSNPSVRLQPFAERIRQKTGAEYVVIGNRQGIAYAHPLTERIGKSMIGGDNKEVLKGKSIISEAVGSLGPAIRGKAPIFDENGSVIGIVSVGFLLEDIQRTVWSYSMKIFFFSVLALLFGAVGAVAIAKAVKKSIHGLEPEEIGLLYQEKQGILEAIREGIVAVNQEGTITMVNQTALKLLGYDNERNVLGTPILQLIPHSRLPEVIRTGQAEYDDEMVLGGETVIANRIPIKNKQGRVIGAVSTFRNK
# [4] = target: T4, Gt CitA PASp domain (WT) (Geobacillus thermodenitrificans, UniProt A4IPE6); assay: X-ray crystallography, molecular replacement; type: binding; conditions: 1 mM sodium citrate added; crystallised from 1 M tri-sodium citrate, 0.1 M imidazole pH 9.0
# T4 construct: gene GTNG_1840; periplasmic (extracytoplasmic) PAS/PDC sensor domain; E. coli BL21(DE3); N-terminal His-tag removed with TEV protease
# T4 sequence (A4IPE6 entry or part of it): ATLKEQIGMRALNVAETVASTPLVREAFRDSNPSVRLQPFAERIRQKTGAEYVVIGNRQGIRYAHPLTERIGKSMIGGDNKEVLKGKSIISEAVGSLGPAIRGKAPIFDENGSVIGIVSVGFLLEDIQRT
# [5] = target: N288D mutant of the cytosolic PAS domain (PASc) of Geobacillus thermodenitrificans CitA (Geobacillus thermodenitrificans); assay: SEC; size exclusion column, down to a concentration of 1 μM (Supplementary Fig. 8)
# [6] = target: wild-type cytosolic PAS domain (PASc) of Geobacillus thermodenitrificans CitA (Geobacillus thermodenitrificans); assay: as above
# T1 sequence (A4IPE6 entry or part of it C12A/R93A/N308C): as the sequence (A4IPE6 entry or part of it C12A/R93A) above, with N308C counted along it
compound,measurement,setting,value
O=C(O)CC(O)(CC(=O)O)C(=O)O [citrate],"19F CODEX with DNP, inter-dimer distance change",[1],A decay in the CODEX signal to half of the reference signal was observed when citrate was bound
same,31P NMR ATP hydrolysis assay in DMPC liposomes,[2],"Upon citrate binding, a threefold increase in CitA’s ATP hydrolysis rate was observed"
same,1H-detected MAS solid-state NMR chemical shifts,[3],also indicate changes in secondary structure upon addition of citrate
same,"X-ray crystallography, molecular replacement",[4],Superposition of the citrate-bound Gt PASp domain structure (PDB: 8BGB
N288D mutant of the cytosolic PAS domain (PASc) of Geobacillus thermodenitrificans CitA (domain or fragment),stoichiometry N,[5],2
wild-type cytosolic PAS domain (PASc) of Geobacillus thermodenitrificans CitA (domain or fragment),stoichiometry N,[6],2

# Reference: paper PMC11754779, “Mechanism of sensor kinase CitA transmembrane signaling” (Nature Communications, 2025)
